Laboratory results reported in patent US20240239775A1, “FXR REGULATOR, PREPARATION METHOD THEREFOR, PHARMACEUTICAL COMPOSITION THEREOF AND USE THEREOF” (QINGDAO RUIJI MEDICAL TECHNOLOGY CO., LTD., priority 2021, published 2024).

What follows are compounds tested against T1, FXR (Homo sapiens, UniProt Q96RI1) (assay: FXR antagonist screening by TR-FRET (LanthaScreen TR-FRET FXR co-activation assay kit)). Settings: Table 1.2, FXR antagonistic activity; TR-FRET with CDCA; geometric means of at least two independent runs.
T1 construct: 5 μL of 20 nM FXR-LBD Complete Coregulator buffer G; purchased ThermoFisher PV4833
T1 sequence (Q96RI1 262-486 limits assumed): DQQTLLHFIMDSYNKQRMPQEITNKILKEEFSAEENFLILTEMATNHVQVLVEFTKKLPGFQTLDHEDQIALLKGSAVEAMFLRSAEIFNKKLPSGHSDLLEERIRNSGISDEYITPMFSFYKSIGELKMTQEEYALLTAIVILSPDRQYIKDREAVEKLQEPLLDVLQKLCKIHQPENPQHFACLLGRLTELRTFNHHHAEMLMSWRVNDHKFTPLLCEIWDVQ
Format: biochemical
Method: FXR activity was evaluated by time-resolved fluorescence resonance energy transfer (TR-FRET) assay, using LanthaScreen™ TR-FRET FXR co-activation assay kit (ThermoFisher, Cat. PV4833). For agonist screening, 10 μL of Complete Coregulator buffer G containing the corresponding concentration of the compound to be tested, 5 μL of 20 nM FXR-LBD Complete Coregulator buffer G, and 5 μL of 2.0 μM Fluorescein-SRC2-2/20 nM Tb-anti-GST antibody Complete Coregulator buffer G were added to each well of a 384-well black plate (Coring) in sequence. […] Three duplicate wells were set up for each compound, with CDCA as the positive compound and DMSO as the solvent control. For antagonist screening, 5 μL of Complete Coregulator buffer G containing the corresponding concentration of the compound to be tested, 5 μL of 20 nM FXR-LBD Complete Coregulator buffer G, 5 μL of 200 μM CDCA FXR-LBD Complete Coregulator buffer G, and 5 μL of 2.0 μM Fluorescein-SRC2-2/20 nM Tb-anti-GST antibody Complete Coregulator buffer G were added to each well of a 384-well black plate (Coring) in sequence and incubated at room temperature for 10 h. Following operations were the same as those for agonist screening
Compound `C/C=C/C(=O)N1CCN(c2ccccc2N(CCc2ccccc2)S(=O)(=O)c2ccc3oc(C(=O)O)c(C)c3c2)CC1` [Example F27-S120, (E)-5-(N-(2-(4-(but-2-enoyl)piperazin-1-yl)phenyl)-N-phenethylsulfamoyl)-3-methylbenzofuran-2-carboxylic acid] has an IC50 of 0.1 to 10 µM.
`Cc1c(C(=O)O)oc2ccc(S(=O)(=O)N(CCc3ccccc3)c3ccccc3N3CCN(C(=O)c4ccco4)CC3)cc12` [Example F27-S121, 5-(N-(2-(4-(furan-2-carbonyl)piperazin-1-yl)phenyl)-N-phenethylsulfamoyl)-3-methylbenzofuran-2-carboxylic acid] showed an IC50 of 0.1 to 10 µM.
For `Cc1c(C(=O)O)oc2ccc(S(=O)(=O)N(CCc3ccccc3)c3ccccc3N3CCN(C(=O)C4CCCC4)CC3)cc12` [Example F27-S122, 5-(N-(2-(4-(cyclopentanecarbonyl)piperazin-1-yl)phenyl)-N-phenethylsulfamoyl)-3-methylbenzofuran-2-carboxylic acid], the IC50 was 0.1 to 10 µM.
Work on `Cc1c(C(=O)O)oc2ccc(S(=O)(=O)N(CCc3ccccc3)c3ccccc3N3CCN(C(=O)c4ccc(Br)s4)CC3)cc12` [Example F27-S123, 5-(N-(2-(4-(5-bromothiophene-2-carbonyl)piperazin-1-yl)phenyl)-N-phenethylsulfamoyl)-3-methyl benzofuran-2-carboxylic acid] yielded an IC50 of 0.1 to 10 µM.
In the case of `Cc1c(C(=O)O)oc2ccc(S(=O)(=O)N(CCc3ccccc3)c3ccccc3N3CCN(C(=O)c4ccc[nH]4)CC3)cc12` [Example F27-S124, 5-(N-(2-(4-(1H-pyrrole-2-carbonyl)piperazin-1-yl)phenyl)-N-phenethylsulfamoyl)-3-methylbenzofuran-2-carboxylic acid], the IC50 is reported as 0.1 to 10 µM.
`Cc1c(C(=O)O)oc2ccc(S(=O)(=O)N(CCc3ccccc3)c3ccccc3N3CCN(C(=O)c4sccc4Br)CC3)cc12` [Example F27-S125, 5-(N-(2-(4-(3-bromothiophene-2-carbonyl)piperazin-1-yl)phenyl)-N-phenethylsulfamoyl)-3-methyl benzofuran-2-carboxylic acid] gave an IC50 of 0.1 to 10 µM.
`Cc1c(C(=O)O)oc2ccc(S(=O)(=O)N(CCc3ccccc3)c3ccccc3N3CCN(C(=O)c4sccc4Cl)CC3)cc12` [Example F27-S126, 5-(N-(2-(4-(3-chlorothiophene-2-carbonyl)piperazin-1-yl)phenyl)-N-phenethylsulfamoyl)-3-methyl benzofuran-2-carboxylic acid] was tested, and the IC50 was 0.1 to 10 µM.
`Cc1c(C(=O)O)oc2ccc(S(=O)(=O)N(CCc3ccccc3)c3ccccc3N3CCN(C(=O)c4cc(Br)cs4)CC3)cc12` [Example F27-S127, 5-(N-(2-(4-(4-bromothiophene-2-carbonyl)piperazin-1-yl)phenyl)-N-phenethylsulfamoyl)-3-methyl benzofuran-2-carboxylic acid] gave an IC50 of 0.1 to 10 µM.
`Cc1c(C(=O)O)oc2ccc(S(=O)(=O)N(CCc3ccccc3)c3ccccc3N3CCN(C(=O)c4ccc(Cl)s4)CC3)cc12` [Example F27-S128, 5-(N-(2-(4-(5-chlorothiophene-2-carbonyl)piperazin-1-yl)phenyl)-N-phenethylsulfamoyl)-3-methyl benzofuran-2-carboxylic acid] was tested, and the IC50 was 0.1 to 10 µM.
`Cc1c(C(=O)O)oc2ccc(S(=O)(=O)N(CCc3ccccc3)c3ccccc3N3CCN(C(=O)c4cncs4)CC3)cc12` [Example F27-S129, 3-methyl-5-(N-phenethyl-N-(2-(4-(thiazole-5-carbonyl)piperazin-1-yl)phenyl)sulfamoyl)benzofuran-2-carboxylic acid] was tested, and the IC50 was 0.1 to 10 µM.
`Cc1c(C(=O)O)oc2ccc(S(=O)(=O)N(CCc3ccccc3)c3ccccc3N3CCN(C(=O)c4cc[nH]n4)CC3)cc12` [Example F27-S130, 5-(N-(2-(4-(1H-pyrazole-3-carbonyl)piperazin-1-yl)phenyl)-N-phenethylsulfamoyl)-3-methylbenzo furan-2-carboxylic acid] showed an IC50 of 0.1 to 10 µM.
Compound `Cc1c(C(=O)O)oc2ccc(S(=O)(=O)N(CCc3ccccc3)c3ccccc3N3CCN(C(=O)c4cnco4)CC3)cc12` [Example F27-S131, 3-methyl-5-(N-(2-(4-(oxazole-5-carbonyl)piperazin-1-yl)phenyl)-N-phenethylsulfamoyl)benzofuran-2-carboxylic acid] has an IC50 of 0.1 to 10 µM.
`Cc1ccc(C(=O)N2CCN(c3ccccc3N(CCc3ccccc3)S(=O)(=O)c3ccc4oc(C(=O)O)c(C)c4c3)CC2)cc1C` [Example F27-S132, 5-(N-(2-(4-(3,4-dimethylbenzoyl)piperazin-1-yl)phenyl)-N-phenethylsulfamoyl)3-methylbenzofuran-2-carboxylic acid] was tested, and the IC50 was 0.1 to 10 µM.
Compound `COc1cccc(OC)c1C(=O)N1CCN(c2ccccc2N(CCc2ccccc2)S(=O)(=O)c2ccc3oc(C(=O)O)c(C)c3c2)CC1` [Example F27-S133, 5-(N-(2-(4-(2,6-dimethoxybenzoyl)piperazin-1-yl)phenyl)-N-phenethylsulfamoyl)3-methylbenzofuran-2-carboxylic acid] has an IC50 of 0.1 to 10 µM.
`Cc1c(C(=O)O)oc2ccc(S(=O)(=O)N(CCc3ccccc3)c3ccccc3N3CCN(C(=O)c4ccccc4Cc4ccccc4)CC3)cc12` [Example F27-S134, 5-(N-(2-(4-(2-benzylbenzoyl)piperazin-1-yl)phenyl)-N-phenethylsulfamoyl)3-methylbenzofuran-2-carboxylic acid] showed an IC50 of 0.1 to 10 µM.
Compound `Cc1cc(C)c(C(=O)N2CCN(c3ccccc3N(CCc3ccccc3)S(=O)(=O)c3ccc4oc(C(=O)O)c(C)c4c3)CC2)c(C)c1` [Example F27-S135, 5-(N-(2-(4-(2,4,6-trimethylbenzoyl)piperazin-1-yl)phenyl)-N-phenethylsulfamoyl)3-methylbenzofuran-2-carboxylic acid] has an IC50 of 0.1 to 10 µM.
`COc1ccccc1C(=O)N1CCN(c2ccccc2N(CCc2ccccc2)S(=O)(=O)c2ccc3oc(C(=O)O)c(C)c3c2)CC1` [Example F27-S136, 5-(N-(2-(4-(2-methoxybenzoyl)piperazin-1-yl)phenyl)-N-phenethylsulfamoyl)3-methylbenzofuran-2-carboxylic acid] gave an IC50 of 0.1 to 10 µM.
Compound `Cc1ccc(C)c(C(=O)N2CCN(c3ccccc3N(CCc3ccccc3)S(=O)(=O)c3ccc4oc(C(=O)O)c(C)c4c3)CC2)c1` [Example F27-S137, 5-(N-(2-(4-(2,5-Dimethylbenzoyl)piperazin-1-yl)phenyl)-N-phenethylsulfamoyl)3-methylbenzofuran-2-carboxylic acid] has an IC50 of 0.1 to 10 µM.
`Cc1c(C(=O)O)oc2ccc(S(=O)(=O)N(CCc3ccccc3)c3ccccc3N3CCN(C(=O)c4ccc(C#Cc5ccccc5)cc4)CC3)cc12` [Example F27-S138, 5-(N-(2-(4-(4-(phenylethynyl)benzoyl)piperazin-1-yl)phenyl)-N-phenethylsulfamoyl)3-methylbenzofuran-2-carboxylic acid] was tested, and the IC50 was 0.1 to 10 µM.
For `Cc1ccc(C(=O)N2CCN(c3ccccc3N(CCc3ccccc3)S(=O)(=O)c3ccc4oc(C(=O)O)c(C)c4c3)CC2)s1` [Example F27-S139, 5-(N-(2-(4-(5-methylthiophene-2-formyl)piperazin-1-yl)phenyl)-N-phenethylsulfamoyl)3-methylbenzofuran-2-carboxylic acid], the IC50 was 0.1 to 10 µM.
`Cc1csc(C(=O)N2CCN(c3ccccc3N(CCc3ccccc3)S(=O)(=O)c3ccc4oc(C(=O)O)c(C)c4c3)CC2)c1` [Example F27-S140, 5-(N-(2-(4-(4-methylthiophene-2-formyl)piperazin-1-yl)phenyl)-N-phenethylsulfamoyl)3-methylbenzofuran-2-carboxylic acid] gave an IC50 of 0.1 to 10 µM.
With `Cc1ccsc1C(=O)N1CCN(c2ccccc2N(CCc2ccccc2)S(=O)(=O)c2ccc3oc(C(=O)O)c(C)c3c2)CC1` [Example F27-S141, 5-(N-(2-(4-(3-methylthiophene-2-formyl)piperazin-1-yl)phenyl)-N-phenethylsulfamoyl)3-methylbenzofuran-2-carboxylic acid] the IC50 was 0.1 to 10 µM.
`Cc1c(C(=O)O)oc2ccc(S(=O)(=O)N(CCc3ccccc3)c3ccccc3N3CCN(C(=O)c4ncc[nH]4)CC3)cc12` [Example F27-S142, 5-(N-(2-(4-(1H-imidazole-2-formyl)piperazin-1-yl)phenyl)-N-phenethylsulfamoyl)3-methylbenzofuran-2-carboxylic acid] was tested, and the IC50 was 0.1 to 10 µM.
With `Cc1c(C(=O)O)oc2ccc(S(=O)(=O)N(CCc3ccccc3)c3ccccc3N3CCN(C(=O)C4CCCS4)CC3)cc12` (stereo not shown) [Example F27-S143, 5-(N-(2-(4-(tetrahydrothiophene-2-formyl)piperazin-1-yl)phenyl)-N-phenethylsulfamoyl)3-methyl benzofuran-2-carboxylic acid] the IC50 was 0.1 to 10 µM.
Compound `Cc1c(C(=O)O)oc2ccc(S(=O)(=O)N(CCc3ccccc3)c3ccccc3N3CCN(C(=O)c4c[nH]cn4)CC3)cc12` [Example F27-S144, 5-(N-(2-(4-(1H-imidazole-4-formyl)piperazin-1-yl)phenyl)-N-phenethylsulfamoyl)3-methylbenzofuran-2-carboxylic acid] has an IC50 of 0.1 to 10 µM.
